Values of other authors in patent publication US20240090499A1, “PRESERVATIVE COMPOSITIONS” (Dermegen Inc., priority 2022, published 2024).
Read-outs that look alike come from different tables or passages of the source.

System: fungi (molds)
Conditions: ingredient on its own

Molecule	anti-fungal activity as known	anti-fungal activity as known (listed as Polylysine)
CCCCCCCC(=O)OCC(O)CO (stereo not drawn) [glyceryl caprylate]	weak preservatives against molds	
polylysine	only weakly anti-fungal	weak preservative against fungal microorganisms such as molds
